According to PubChem BioAssay AID248 (DTP/NCI, 2004):
Several values for one entry are separate records, joined by “and”; a condition that tells them apart may be missing. Identical values can stand only once. Inconclusive results and toxic doses are left out.

Test system: L1210 leukemia ip in BDF1 mice, survival T/C
Assay: NCI In Vivo Anticancer Drug Screen. Data for tumor model L1210 Leukemia (intraperitoneal) in B6D2F1 (BDF1) mice
Conditions: endpoint: mean survival time, higher = longer survival
Method in brief: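 Read-out is survival time, reported as the treated-group measurement over the vehicle-control measurement.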

[1] = dose: 100.0 mg/kg/injection, schedule: Q04DX003 (ip), vehicle: Klucel (hydroxypropylcellulose) (HPC)
[2] = dose: 200.0 mg/kg/injection, schedule: Q04DX003 (ip), vehicle: Klucel (hydroxypropylcellulose) (HPC)
[3] = dose: 100.0 mg/kg/injection, schedule: Q01DX001 (ip), vehicle: carboxymethylcellulose (CMC)
[4] = dose: 200.0 mg/kg/injection, schedule: Q01DX001 (ip), vehicle: carboxymethylcellulose (CMC)
[5] = dose: 400.0 mg/kg/injection, schedule: Q01DX001 (ip), vehicle: carboxymethylcellulose (CMC)
[6] = dose: 100.0 mg/kg/injection, schedule: Q01DX001 (ip), vehicle: saline
[7] = dose: 200.0 mg/kg/injection, schedule: Q01DX001 (ip), vehicle: saline
[8] = dose: 400.0 mg/kg/injection, schedule: Q01DX001 (ip), vehicle: saline

## S=C1SC2CCCCC2S1 (centres undefined)
dose: 25.0 mg/kg/injection, schedule: Q04DX002 (ip), vehicle: Klucel (hydroxypropylcellulose) (HPC)
  T/C: 100 % of control
dose: 50.0 mg/kg/injection, schedule: Q04DX002 (ip), vehicle: Klucel (hydroxypropylcellulose) (HPC)
  T/C: 106 % of control
dose: 100.0 mg/kg/injection, schedule: Q04DX002 (ip), vehicle: Klucel (hydroxypropylcellulose) (HPC)
  T/C: 95 % of control
[1]
  T/C: 103 % of control
[2]
  T/C: 94 % of control
dose: 400.0 mg/kg/injection, schedule: Q04DX003 (ip), vehicle: Klucel (hydroxypropylcellulose) (HPC)
  T/C: 103 % of control

## NC(=S)N/N=C1\CCCC\C1=N/NC(N)=S
dose: 50.0 mg/kg/injection, schedule: Q01DX001 (ip), vehicle: carboxymethylcellulose (CMC)
  T/C: 101 % of control
[3]
  T/C: 109 % of control
[4]
  T/C: 101 % of control
[5]
  T/C: 104 % of control

## O=C(O)c1cccc2cccc(C(=O)c3cccs3)c12
dose: 100.0 mg/kg/injection, schedule: Q04DX003 (ip), vehicle: saline with Tween-80
  T/C: 91 % of control
dose: 200.0 mg/kg/injection, schedule: Q04DX003 (ip), vehicle: saline with Tween-80
  T/C: 98 % of control
dose: 400.0 mg/kg/injection, schedule: Q04DX003 (ip), vehicle: saline with Tween-80
  T/C: 91 % of control

## CCCCCCCC(C)NCCCO (centres undefined)
dose: 75.0 mg/kg/injection, schedule: Q01DX001 (ip), vehicle: saline
  T/C: 90 % of control

## C=CCOP(OCC=C)OCC=C
dose: 25.0 mg/kg/injection, schedule: Q01DX009 (ip), vehicle: saline
  T/C: 103 % of control
dose: 50.0 mg/kg/injection, schedule: Q01DX009 (ip), vehicle: saline
  T/C: 103 % of control
dose: 50.0 mg/kg/injection, schedule: Q04DX003 (ip), vehicle: saline
  T/C: 97 % of control
dose: 100.0 mg/kg/injection, schedule: Q01DX009 (ip), vehicle: saline
  T/C: 87 % of control
dose: 100.0 mg/kg/injection, schedule: Q04DX003 (ip), vehicle: saline
  T/C: 101 % of control

## CC1CN=C(c2cccc(NC(=O)Nc3ccc(NC(=O)Nc4cccc(C5=NCC(C)N5)c4)cc3)c2)N1 (centres undefined)
dose: 4.5 mg/kg/injection, schedule: Q01DX Z (ip), vehicle: carboxymethylcellulose (CMC)
  T/C: 118 % of control
dose: 36.0 mg/kg/injection, schedule: Q01DX Z (ip), vehicle: carboxymethylcellulose (CMC)
  T/C: 202 % of control and 217 % of control
dose: 45.0 mg/kg/injection, schedule: Q01DX Z (ip), vehicle: carboxymethylcellulose (CMC)
  T/C: 153 % of control
dose: 62.0 mg/kg/injection, schedule: Q01DX Z (oral), vehicle: carboxymethylcellulose (CMC)
  T/C: 113 % of control
dose: 63.0 mg/kg/injection, schedule: Q01DX Z (ip), vehicle: carboxymethylcellulose (CMC)
  T/C: 112 % of control
dose: 72.0 mg/kg/injection, schedule: Q01DX Z (ip), vehicle: carboxymethylcellulose (CMC)
  T/C: 101 % of control and 111 % of control
dose: 125.0 mg/kg/injection, schedule: Q01DX Z (oral), vehicle: carboxymethylcellulose (CMC)
  T/C: 113 % of control
dose: 250.0 mg/kg/injection, schedule: Q01DX Z (oral), vehicle: carboxymethylcellulose (CMC)
  T/C: 115 % of control
dose: 500.0 mg/kg/injection, schedule: Q01DX Z (oral), vehicle: carboxymethylcellulose (CMC)
  T/C: 109 % of control

## Nc1nc(N)c2c(n1)[n+]([O-])c1ccccc1[n+]2[O-]
[6]
  T/C: 103 % of control
[7]
  T/C: 103 % of control
[8]
  T/C: 94 % of control

## C=C(C)C(O)CC(C)C (centres undefined)
[3]
  T/C: 100 % of control
[4]
  T/C: 100 % of control
[5]
  T/C: 94 % of control

## O=C(O)C1(Cl)C2(Cl)C(Cl)=CC3(Cl)C(Cl)(C(=O)O)C2(Cl)C31Cl (centres undefined)
dose: 50.0 mg/kg/injection, schedule: Q01DX001 (ip), vehicle: saline
  T/C: 108 % of control
[6]
  T/C: 103 % of control
[7]
  T/C: 101 % of control
[8]
  T/C: 97 % of control

## COc1cc(/C=C(/C)[N+](=O)[O-])ccc1O
dose: 6.0 mg/kg/injection, schedule: Q01DX009 (ip), vehicle: carboxymethylcellulose (CMC)
  T/C: 112 % of control
dose: 12.0 mg/kg/injection, schedule: Q01DX009 (ip), vehicle: carboxymethylcellulose (CMC)
  T/C: 92 % of control
dose: 25.0 mg/kg/injection, schedule: Q01DX009 (ip), vehicle: Klucel (hydroxypropylcellulose) (HPC)
  T/C: 112 % of control
dose: 25.0 mg/kg/injection, schedule: Q01DX009 (ip), vehicle: carboxymethylcellulose (CMC)
  T/C: 105 % of control
dose: 50.0 mg/kg/injection, schedule: Q01DX009 (ip), vehicle: Klucel (hydroxypropylcellulose) (HPC)
  T/C: 100 % of control
dose: 50.0 mg/kg/injection, schedule: Q01DX009 (ip), vehicle: carboxymethylcellulose (CMC)
  T/C: 100 % of control and 103 % of control
dose: 50.0 mg/kg/injection, schedule: Q04DX003 (ip), vehicle: Klucel (hydroxypropylcellulose) (HPC)
  T/C: 97 % of control
dose: 100.0 mg/kg/injection, schedule: Q01DX009 (ip), vehicle: Klucel (hydroxypropylcellulose) (HPC)
  T/C: 109 % of control
[1]
  T/C: 105 % of control
dose: 200.0 mg/kg/injection, schedule: Q01DX009 (ip), vehicle: Klucel (hydroxypropylcellulose) (HPC)
  T/C: 103 % of control
[2]
  T/C: 103 % of control
